Results on 10 molecules are retold here after patent US20150148377A1, “Quinoline Derivatives” (NOVARTIS AG, priority 2011, published 2015).

The target in this assay is T1, PI3K delta (Homo sapiens, UniProt O00329).
T1 construct: for the full-length p110-d subunit are generated and fused by overlapping PCR; His tag (C); made in house; host or cells: baculovirus; Tn5 (Trichoplusia ni) or TiniPro insect cells
Description: Enzymatic PI3K delta isoform inhibition (lipid kinase activity, Kinase-Glo). In kind it is biochemical. Particulars: enzymatic assay. The essentials: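 Preferred format: PI3Kδ 10 nM with PI 10 μg/mL and ATP 1 μM in Tris 10 mM pH 7.5, MgCl2 3 mM, NaCl 50 mM, CHAPS, DTT; 60 min at RT, 8 concentrations. ATP depletion read by Kinase-Glo luminescence; IC50 from four-parameter logistic fit.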

T1 sequence (O00329 with tags, fused parts or gaps limits assumed): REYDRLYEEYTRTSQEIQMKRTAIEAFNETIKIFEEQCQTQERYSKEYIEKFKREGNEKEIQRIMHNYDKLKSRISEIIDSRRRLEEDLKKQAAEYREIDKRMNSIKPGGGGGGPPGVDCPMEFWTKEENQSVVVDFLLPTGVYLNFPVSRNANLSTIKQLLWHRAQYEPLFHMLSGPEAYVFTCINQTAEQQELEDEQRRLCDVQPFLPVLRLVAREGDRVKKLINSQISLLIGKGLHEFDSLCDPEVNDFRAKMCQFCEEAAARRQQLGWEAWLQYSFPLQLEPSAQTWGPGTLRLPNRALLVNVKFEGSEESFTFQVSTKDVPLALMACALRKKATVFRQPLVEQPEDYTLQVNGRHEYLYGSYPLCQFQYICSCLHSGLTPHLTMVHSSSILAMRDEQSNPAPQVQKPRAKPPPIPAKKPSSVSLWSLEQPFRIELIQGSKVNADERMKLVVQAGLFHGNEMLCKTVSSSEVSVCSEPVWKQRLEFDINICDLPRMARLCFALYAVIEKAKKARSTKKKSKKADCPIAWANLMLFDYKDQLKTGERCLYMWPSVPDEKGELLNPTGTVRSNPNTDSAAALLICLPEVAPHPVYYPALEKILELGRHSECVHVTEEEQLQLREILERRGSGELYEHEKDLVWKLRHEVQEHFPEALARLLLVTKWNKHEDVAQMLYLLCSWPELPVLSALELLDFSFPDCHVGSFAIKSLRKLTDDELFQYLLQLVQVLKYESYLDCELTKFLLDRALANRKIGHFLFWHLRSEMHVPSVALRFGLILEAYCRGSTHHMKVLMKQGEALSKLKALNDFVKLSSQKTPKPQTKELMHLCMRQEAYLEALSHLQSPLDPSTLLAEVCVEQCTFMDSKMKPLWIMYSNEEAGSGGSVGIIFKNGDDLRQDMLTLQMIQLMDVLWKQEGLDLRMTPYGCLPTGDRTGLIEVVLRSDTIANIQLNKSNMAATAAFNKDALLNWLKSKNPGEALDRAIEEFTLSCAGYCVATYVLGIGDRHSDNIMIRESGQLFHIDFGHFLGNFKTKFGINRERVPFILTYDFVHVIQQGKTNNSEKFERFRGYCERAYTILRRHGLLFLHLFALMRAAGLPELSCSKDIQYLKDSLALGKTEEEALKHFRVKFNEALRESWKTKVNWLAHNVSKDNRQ

As for `Cc1cc(-c2ccnc3cc(F)c(O[C@H]4CCN(C(=O)C5CCOCC5)C4)cc23)cnc1S(C)(=O)=O` [Example C2, {(S)-3-[7-Fluoro-4-(6-methanesulfonyl-5-methyl-pyridin-3-yl)-quinolin-6-yloxy]-pyrrolidin-1-yl}-(tetrahydro-pyran-4-yl)-methanone], the IC50 (as a rule, the concentration that inhibits the measured activity by half) came to 332 nM.

Consider `CCC(=O)N1CC[C@H](Oc2ccc3nccc(-c4cnc(S(C)(=O)=O)c(C)c4)c3c2)C1` [Example A25, 1-{(S)-3-[4-(6-Methanesulfonyl-5-methyl-pyridin-3-yl)-quinolin-6-yloxy]-pyrrolidin-1-yl}-propan-1-one], for which the IC50 amounted to 12 nM.

For the molecule `COc1ncc(-c2ccnc3ccc(O[C@H]4CCN(C(=O)C5CCS(=O)(=O)CC5)C4)cc23)cc1C` [Example A15, (1,1-Dioxo-hexahydro-1lambda*6*-thiopyran-4-yl)-{(S)-3-[4-(6-methoxy-5-methyl-pyridin-3-yl)-quinolin-6-yloxy]-pyrrolidin-1-yl}-methanone], the IC50 was 7 nM.

As for `COc1ncc(-c2ccnc3ccc(O[C@H]4CCN(C(=O)[C@@H]5CCN(C(C)=O)C5)C4)cc23)cc1C` [Example A10, 1-((R)-3-{(S)-3-[4-(6-Methoxy-5-methyl-pyridin-3-yl)-quinolin-6-yloxy]-pyrrolidine-1-carbonyl}-pyrrolidin-1-yl)-ethanone], the IC50 came to 5 nM.

On to `COc1ncc(-c2ccnc3ccc(O[C@H]4CCN(C(=O)C5CCS(=O)(=O)CC5)C4)c(C)c23)cc1C` [Example B3, (1,1-Dioxo-hexahydro-1lambda*6*-thiopyran-4-yl)-{(S)-3-[4-(6-methoxy-5-methyl-pyridin-3-yl)-5-methyl-quinolin-6-yloxy]-pyrrolidin-1-yl}-methanone], for which the IC50 was found to be 5 nM.

In the case of `COc1ncc(-c2ccnc3ccc(O[C@H]4CCN(C(=O)[C@@H]5CCN(C(C)=O)C5)C4)cc23)cc1C(F)F` [Example A24, 1-((R)-3-{(S)-3-[4-(5-Difluoromethyl-6-methoxy-pyridin-3-yl)-quinolin-6-yloxy]-pyrrolidine-1-carbonyl}-pyrrolidin-1-yl)-ethanone], the IC50 turned out to be 12 nM.

As to `COc1ncc(-c2ccnc3cc(F)c(O[C@H]4CCN(C(=O)C5CCS(=O)(=O)CC5)C4)cc23)cc1C` [Example C1, (1,1-Dioxo-hexahydro-1lambda*6*-thiopyran-4-yl)-{(S)-3-[7-fluoro-4-(6-methoxy-5-methyl-pyridin-3-yl)-quinolin-6-yloxy]-pyrrolidin-1-yl}-methanone], the IC50 stood at 302 nM.

In the case of `COc1ncc(-c2ccnc3ccc(O[C@H]4CCN(C(=O)C5CCS(=O)(=O)CC5)C4)cc23)cc1Cl` [Example A1, {(S)-3-[4-(5-Chloro-6-methoxy-pyridin-3-yl)-quinolin-6-yloxy]-pyrrolidin-1-yl}-(1,1-dioxo-hexahydro-1lambda*6*-thiopyran-4-yl)-methanone], the IC50 was below 3 nM.

Turning to `COc1ncc(-c2ccnc3ccc(O[C@H]4CCN(C(=O)[C@@H]5CCN(C(C)=O)C5)C4)c(C)c23)cc1C(F)F` [Example B1, 1-((R)-3-{(S)-3-[4-(5-Difluoromethyl-6-methoxy-pyridin-3-yl)-5-methylquinolin-6-yloxy]-pyrrolidine-1-carbonyl}-pyrrolidin-1-yl)-ethanone], the 50% inhibitory concentration (IC50) came to 5 nM.

Turning to `COc1ncc(-c2ccnc3ccc(O[C@H]4CCN(C(=O)C5CCS(=O)(=O)CC5)C4)cc23)cc1C(F)F` [Example A6, {(S)-3-[4-(5-Difluoromethyl-6-methoxy-pyridin-3-yl)-quinolin-6-yloxy]-pyrrolidin-1-yl}-(1,1-dioxo-hexahydro-1lambda*6*-thiopyran-4-yl)-methanone], the IC50 was 4 nM.
